In publication PMC4277420, “Assessment of [^125I]WYE-230949 as a Novel Histamine H3 Receptor Radiopharmaceutical” (PLoS ONE, 2014):
Where “and” joins values, the source holds several entries; their conditions need not be identical. Identical values can stand only once.

Experiments:
[1] = target: T1, rat histamine H3 receptor (Rattus norvegicus, UniProt Q9QYN8); experiment: In vitro saturation radioligand binding to rat brain homogenates
T1 construct: from tissue; host or cells: whole brain of male Sprague-Dawley rats, homogenate pellet
T1 sequence (Q9QYN8 whole entry): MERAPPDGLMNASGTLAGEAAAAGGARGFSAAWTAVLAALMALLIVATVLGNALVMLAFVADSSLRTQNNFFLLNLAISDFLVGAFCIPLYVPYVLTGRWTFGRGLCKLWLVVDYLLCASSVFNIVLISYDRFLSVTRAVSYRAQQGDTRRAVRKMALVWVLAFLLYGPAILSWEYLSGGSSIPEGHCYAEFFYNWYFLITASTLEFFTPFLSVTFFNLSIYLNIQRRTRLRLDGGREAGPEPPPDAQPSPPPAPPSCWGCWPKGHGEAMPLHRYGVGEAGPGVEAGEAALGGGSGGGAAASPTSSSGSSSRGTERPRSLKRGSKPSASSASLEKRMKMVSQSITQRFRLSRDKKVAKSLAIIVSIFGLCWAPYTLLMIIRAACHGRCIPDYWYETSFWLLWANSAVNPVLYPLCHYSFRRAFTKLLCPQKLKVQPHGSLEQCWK
Description: Animals (male Sprague-Dawley rats; Harlan, UK) were killed by cervical dislocation. Whole brains were immediately excised and placed into ice-cold Tris-HCl buffer (Tris […], pH 7.4; EDTA 5 mM), homogenised and centrifuged at approx 40,000 g for 10 min at 4°C (Beckman J2-21M/E). The pellet was resuspended in 25 ml of buffer and centrifuged as previously, then the final pellet was resuspended in 10 ml of ice cold Tris buffer and stored at −50°C until required. Protein content was analysed using Bio-Rad reagent; absorbance was read on a spectrophotometer at 562 nm. [^125I]WYE230949 binding assays were carried out in a final incubation volume of 500 µl containing Tris-HCl buffer (Tris […], pH 7.4; EDTA 5 mM), brain homogenates (1.47 to 2.27 mg/ml of protein) and [^125I]WYE230949 (0.04–102 nM). Non-specific binding was defined in the presence of 10 µM iodophenpropit. Samples were incubated at 30°C for 30 min, then filtered rapidly through Whatman GF/B filters (pre-treated with 0.3% polyethylenimine; Aldrich, UK) using a Brandel M24R cell harvester and the filters washed with 3×4 ml ice-cold Tris buffer. Radioactivity on the filters was determined by liquid scintillation counting a minimum of 48 h after filtration. All assays were performed in triplicate. Specific binding was determined by subtracting non-specific binding from total binding at each concentration; Kd and Bmax values derived using GraphPad Prism (version 4.03), and expressed as mean ±SEM of the triplicate assays.

histamine H3 receptor = target: T2, histamine H3 receptor (Rattus norvegicus, UniProt Q9QYN8); experiment: Ex vivo autoradiography (target to cerebellum ratios); assay type: in vivo
T2 construct: Sections (20 µm) cut from a frozen rat brain were pre-incubated in Tris-HCl buffer; from tissue
T2 sequence (Q9QYN8 whole entry): as above
Description: (§1) Animal experiments were conducted under the UK Animals (Scientific Procedures) Act 1986. This work was approved by the ethical review committee at the University of Glasgow (PPL: 60/3436) prior to the start of study. Naïve male Sprague-Dawley rats (Harlan, UK), weighing 217 to 352 g were either conscious or anaesthetised (2.5–3% isoflurane via a tracheostomy and artificial ventilation in 70/30% N2O/O2) for the duration of the experiment. Anaesthetised rats had their respiration and temperature monitored throughout. [^125I]WYE-230949 was administered via a femoral vein cannula to anaesthetised rats or via the lateral tail vein to conscious rats. The injected dose for each rat was calculated by measuring the syringe in a dose calibrator before and after [^125I]WYE-230949 administration. The radioactive and radiochemical amounts administered to individual rats ranged from 12.6 to 24.5 MBq and 0.32 to 0.70 µg/kg respectively in all in vivo studies.
Regional brain uptake was determined by ex vivo autoradiography, studies were performed in both conscious and anaesthetised rats in order to investigate the effect of anaesthesia on [^125I]WYE-230949 uptake. At either 30 or 120 min following [^125I]WYE-230949 administration rats were killed by cervical dislocation. The brains were removed, frozen in isopentane at −42°C and stored at −20°C before sectioning (20 µm) in a cryostat (Bright Instrument Company Ltd). Three sections were taken every 400 µm for the entire length of the rat brain and thaw mounted onto poly-L-lysine coated slides. Sections were dried at room temperature and apposed to X-ray film (Kodak Biomax MR-1) for approximately 2 weeks. The resultant autoradiograms were analysed using computer-based densitometry (MCID, Imaging Research, Canada). Relative optical density (ROD) measurements were obtained from 14 ROIs defined with reference to a rat brain atlas. For each brain region examined, bilateral readings were obtained in triplicate and the average reading determined. ROD values in the cerebellum were used as a measure of non-specific binding. Specific binding was calculated as ROD in ROI/ROD in cerebellum.

Ex vivo biodistribution = assay type: in vivo, rat; details: for brain uptake: i.v.
Description: as §1
Ex vivo biodistribution studies were performed in both conscious and anaesthetised rats in order to investigate the effect of anaesthesia on [^125I]WYE-230949 uptake. At 30 or 120 min following [^125I]WYE-230949 administration rats were killed by cervical dislocation. These time points were chosen based on the biological half life of [^125I]WYE-230949 determined from microSPECT imaging studies. Serial arterial blood sampling via a femoral artery cannula was performed in anaesthetised rats only. Blood was collected into heparin-coated tubes for analysis of plasma and into EDTA coated tubes for analysis of whole blood. At either 30 or 120 min following [^125I]WYE-230949 administration rats were killed by cervical dislocation and the brain, heart, lungs, kidneys and liver dissected. Samples were counted on a Gamma Scintillation Counter (Packard Cobra II D5010, UK) and counts per minute (cpm) converted to kBq using a standard curve. Radioactivity was corrected for decay of ^125I and expressed per sample weight and as a percentage of injected dose (%ID/g tissue).

O=C(c1ccc(Cn2cnc3cccc([125I])c32)cc1)N1CC[C@H](N2CCCC2)C1 [[^125I]WYE-230949]
Non-specific binding as % of total binding ([1]; at 6.6±0.1 nM, defined with 10 µM iodophenpropit, n = 3): 39±3% | Bmax ([1]; whole rat brain homogenates, one-site binding model, n = 8): 508.6±34.9 fmol/mg protein and 509 fmol/mg protein | Target to cerebellum ratio (histamine H3 receptor; Amygdala, 30 min, anaesthetised): 1.10±0.02 | Target to cerebellum ratio (histamine H3 receptor; Amygdala, 30 min, conscious): 1.12±0.04 | Target to cerebellum ratio (histamine H3 receptor; Amygdala, 120 min, anaesthetised): 1.16±0.03 | Target to cerebellum ratio (histamine H3 receptor; Amygdala, 120 min, conscious): 1.26±0.03 | Target to cerebellum ratio (histamine H3 receptor; Anterior Cortex, 30 min, anaesthetised): 1.09±0.03 | Target to cerebellum ratio (histamine H3 receptor; Anterior Cortex, 30 min, conscious): 1.15 ± 0.02 | Target to cerebellum ratio (histamine H3 receptor; Anterior Cortex, 120 min, anaesthetised): 1.10±0.02 | Target to cerebellum ratio (histamine H3 receptor; Anterior Cortex, 120 min, conscious): 1.16±0.02 | Target to cerebellum ratio (histamine H3 receptor; Caudate Putamen, 30 min, anaesthetised): 1.13±0.03 | Target to cerebellum ratio (histamine H3 receptor; Caudate Putamen, 30 min, conscious): 1.17±0.03 | Target to cerebellum ratio (histamine H3 receptor; Caudate Putamen, 120 min, anaesthetised): 1.20±0.04 | Target to cerebellum ratio (histamine H3 receptor; Caudate Putamen, 120 min, conscious): 1.32±0.04 | Target to cerebellum ratio (histamine H3 receptor; Choroid Plexus, 30 min, anaesthetised): 1.73±0.06 | Target to cerebellum ratio (histamine H3 receptor; Choroid Plexus, 30 min, conscious): 2.68±0.04 | Target to cerebellum ratio (histamine H3 receptor; Choroid Plexus, 120 min, anaesthetised): 1.79±0.10 | Target to cerebellum ratio (histamine H3 receptor; Choroid Plexus, 120 min, conscious): 2.66±0.11 | Target to cerebellum ratio (histamine H3 receptor; Hippocampus, 30 min, anaesthetised): 1.08±0.03 | Target to cerebellum ratio (histamine H3 receptor; Hippocampus, 30 min, conscious): 1.06±0.02 | Target to cerebellum ratio (histamine H3 receptor; Hippocampus, 120 min, anaesthetised): 1.08±0.01 | Target to cerebellum ratio (histamine H3 receptor; Hippocampus, 120 min, conscious): 1.10±0.02 | Target to cerebellum ratio (histamine H3 receptor; Hypothalamus, 30 min, anaesthetised): 1.16±0.03 | Target to cerebellum ratio (histamine H3 receptor; Hypothalamus, 30 min, conscious): 1.13±0.03 | Target to cerebellum ratio (histamine H3 receptor; Hypothalamus, 120 min, anaesthetised): 1.18±0.03 | Target to cerebellum ratio (histamine H3 receptor; Hypothalamus, 120 min, conscious): 1.18±0.02 | Target to cerebellum ratio (histamine H3 receptor; Medial Cortex, 30 min, anaesthetised): 1.10±0.03 | Target to cerebellum ratio (histamine H3 receptor; Medial Cortex, 30 min, conscious): 1.22±0.03 | Target to cerebellum ratio (histamine H3 receptor; Medial Cortex, 120 min, anaesthetised): 1.12±0.02 | Target to cerebellum ratio (histamine H3 receptor; Medial Cortex, 120 min, conscious): 1.21±0.02 | Target to cerebellum ratio (histamine H3 receptor; Nucleus Accumbens (Core), 30 min, anaesthetised): 1.12±0.03 | Target to cerebellum ratio (histamine H3 receptor; Nucleus Accumbens (Core), 30 min, conscious): 1.15±0.03 | Target to cerebellum ratio (histamine H3 receptor; Nucleus Accumbens (Core), 120 min, anaesthetised): 1.24±0.04 | Target to cerebellum ratio (histamine H3 receptor; Nucleus Accumbens (Core), 120 min, conscious): 1.36±0.03 | Target to cerebellum ratio (histamine H3 receptor; Nucleus Accumbens (Shell), 30 min, anaesthetised): 1.12±0.02 | Target to cerebellum ratio (histamine H3 receptor; Nucleus Accumbens (Shell), 30 min, conscious): 1.17±0.06 | Target to cerebellum ratio (histamine H3 receptor; Nucleus Accumbens (Shell), 120 min, anaesthetised): 1.24±0.04 | Target to cerebellum ratio (histamine H3 receptor; Nucleus Accumbens (Shell), 120 min, conscious): 1.33±0.05 | Target to cerebellum ratio (histamine H3 receptor; Posterior Cortex, 30 min, anaesthetised): 1.08±0.03 | Target to cerebellum ratio (histamine H3 receptor; Posterior Cortex, 30 min, conscious): 1.18±0.03 | Target to cerebellum ratio (histamine H3 receptor; Posterior Cortex, 120 min, anaesthetised): 1.13±0.03 | Target to cerebellum ratio (histamine H3 receptor; Posterior Cortex, 120 min, conscious): 1.26±0.02 | Target to cerebellum ratio (histamine H3 receptor; Substantia Nigra, 30 min, anaesthetised): 1.19±0.03 | Target to cerebellum ratio (histamine H3 receptor; Substantia Nigra, 30 min, conscious): 1.10±0.02 | Target to cerebellum ratio (histamine H3 receptor; Substantia Nigra, 120 min, anaesthetised): 1.26±0.04 | Target to cerebellum ratio (histamine H3 receptor; Substantia Nigra, 120 min, conscious): 1.26±0.03 | Target to cerebellum ratio (histamine H3 receptor; Thalamus, 30 min, anaesthetised): 1.10±0.03 | Target to cerebellum ratio (histamine H3 receptor; Thalamus, 30 min, conscious): 1.11±0.02 | Target to cerebellum ratio (histamine H3 receptor; Thalamus, 120 min, anaesthetised): 1.09±0.02 | Target to cerebellum ratio (histamine H3 receptor; Thalamus, 120 min, conscious): 1.08±0.02 | ratio of specific to non-specific binding (histamine H3 receptor; all brain ROIs, conscious and anaesthetised rats): less than 1.4 | brain uptake (Ex vivo biodistribution; 30 min, anaesthetised rats): 0.11 %ID/g | brain uptake (Ex vivo biodistribution; 30 min, conscious rats): 0.06±0.01 %ID/g | brain uptake (Ex vivo biodistribution; 120 min, anaesthetised rats): 0.06±0.01 %ID/g | brain uptake (Ex vivo biodistribution; 120 min, conscious rats): 0.03±0.003 %ID/g | peak radioactivity in plasma (Ex vivo biodistribution; anaesthetised rats, n = 6): 4.04±1.14 %ID/g of tissue | peak radioactivity in whole blood (Ex vivo biodistribution; anaesthetised rats, n = 6): 3.14±0.26 %ID/g of tissue | time of peak radioactivity in plasma (Ex vivo biodistribution; anaesthetised rats, n = 6): 0.38 ± 0.02 min | time of peak radioactivity in whole blood (Ex vivo biodistribution; anaesthetised rats, n = 6): 0.50 ± 0.03 min
